The record followed here is patent publication US20120053168A1, “FUSED BENZOAZEPINES AS NEURONAL NICOTINIC ACETYLCHOLINE RECEPTOR LIGANDS” (Targacept, Inc., priority 2009, published 2012).

As a reminder, the Ki is the equilibrium dissociation constant of an inhibitor or competing ligand from its target. A low value points to higher affinity. The EC50 is the midpoint of the concentration-response curve. Higher therefore signals a less potent agent. As a reminder, the Emax is the maximal effect, on the per cent scale that the assay sets.

The target in assay [1] is T1, Rat α4β2 nAChR subtype (Rattus norvegicus, UniProt P09483+P12390).
T1 construct: from tissue; host or cells: rat cerebral cortex membranes (female Sprague-Dawley)
Kind of assay: [3H]nicotine radioligand binding, membranes from rat cortex. The protocol:
Preparation of membranes from rat cortex: Rats (female, Sprague-Dawley), weighing 150-250 g, were maintained on a 12 h light/dark cycle and were allowed free access to water and food supplied by PMI Nutrition International, Inc. Animals were anesthetized with 70% CO2, and then decapitated. Brains were removed and placed on an ice-cold platform. The cerebral cortex was removed and placed in 20 volumes (weight:volume) of ice-cold preparative buffer (137 mM NaCl, 10.7 mM KCl, 5.8 mM KH2PO4, 8 mM Na2HPO4, 20 mM HEPES (free acid), 5 mM iodoacetamide, 1.6 mM EDTA, pH 7.4); PMSF, dissolved in methanol to a final concentration of 100 μM, was added and the suspension was homogenized by Polytron. The homogenate was centrifuged at 18,000×g for 20 min at 4° C. and the resulting pellet was re-suspended in 20 volumes of ice-cold water. After 60 min incubation on ice, a new pellet was collected by centrifugation at 18,000×g for 20 min at 4° C. The final pellet was re-suspended in 10 volumes of buffer and stored at ˜20° C.
On the day of the assay, the frozen membranes were thawed and spun at 48,000×g for 20 min. The supernatant was decanted and discarded. The pellet was resuspended in Dulbecco's phosphate buffered saline (PBS, Life Technologies) pH 7.4 and homogenized with the Polytron for 6 seconds. Protein concentrations were determined using a Pierce BCA Protein Assay Kit, with bovine serum albumin as the standard (Pierce Chemical Company, Rockford, Ill.).
Assay: Membrane preparations (approximately 50 μg for human and 200-300 μg protein for rat α4β2) were incubated in PBS (50 μL and 100 μL respectively) in the presence of competitor compound (0.01 nM to 100 μM) and 5 nM [^3H]nicotine for 2-3 hours on ice. Incubation was terminated by rapid filtration on a multi-manifold tissue harvester (Brandel, Gaithersburg, Md.) using GF/B filters presoaked in 0.33% polyethyleneimine (w/v) to reduce non-specific binding. Tissue was rinsed 3 times in PBS, pH 7.4. Scintillation fluid was added to filters containing the washed tissue and allowed to equilibrate. Filters were then counted to determine radioactivity bound to the membranes by liquid scintillation counting (2200CA Tri-Carb LSC, Packard Instruments, 50% efficiency or Wallac Trilux 1450 MicroBeta, 40% efficiency, Perkin Elmer).
Data were expressed as disintegrations per minute (DPMs). Within each assay, each point had 2-3 replicates. The replicates for each point were averaged and plotted against the log of the drug concentration. IC50, which is the concentration of the compound that produces 50% inhibition of binding, was determined by least squares non-linear regression. Ki values were calculated using the Cheng-Prussof equation (1973): […]
where N is the concentration of [^3H]nicotine and Kd is the affinity of nicotine (3 nM, determined in a separate experiment).

The target in assay [2] is T2, human ganglionic nAChR subtype (Homo sapiens, UniProt P30926+P32297).
T2 construct: endogenous in cells; host or cells: SH-SY5Y human neuroblastoma cells
Kind of assay: 86Rb+ efflux in SH-SY5Y cells (human ganglionic nAChR subtype). It counts as cell-based. An excerpt:
Example 8: Interaction at the Human Ganglionic nAChR Subtype
The cell line SH-SY5Y is a continuous line derived by sequential subcloning of the parental cell line, SK-N-SH, which was originally obtained from a human peripheral neuroblastoma. SH-SY5Y cells express a ganglion-like nAChR (Lukas et al., Mol. Cell. Neurosci. 4: 1 (1993)).
Human SH-SY5Y cells were maintained in proliferative growth phase according to routine protocols (Bencherif et al., Mol. Cell. Neurosci. 2: 52 (1991) and Bencherif et al., J. Pharmacol. Exp. Ther. 257: 946 (1991)). Cells were cultured in Dulbecco's modified Eagle's medium (Gibco/BRL) with 10% horse serum (Gibco/BRL), 5% fetal bovine serum (HyClone, Logan Utah), 1 mM sodium pyruvate, 4 mM L-Glutamine, and 50,000 units penicillin-streptomycin (Irvine Scientific). When cells were 80% confluent, they were plated to 12 well polystyrene plates (Costar). […]
Nicotinic acetylcholine receptor (nAChR) function was assayed using ^86Rb^+efflux according to a method described by Lukas et al., Anal. Biochem. 175: 212 (1988). […] Scintillation fluid was added and released radioactivity was measured by liquid scintillation counting. […]
When appropriate, dose-response curves of test compound were determined. The maximal activation for individual compounds (Emax) was determined as a percentage of the maximal activation induced by L-nicotine. […]

T2 sequence (P32297 32-505): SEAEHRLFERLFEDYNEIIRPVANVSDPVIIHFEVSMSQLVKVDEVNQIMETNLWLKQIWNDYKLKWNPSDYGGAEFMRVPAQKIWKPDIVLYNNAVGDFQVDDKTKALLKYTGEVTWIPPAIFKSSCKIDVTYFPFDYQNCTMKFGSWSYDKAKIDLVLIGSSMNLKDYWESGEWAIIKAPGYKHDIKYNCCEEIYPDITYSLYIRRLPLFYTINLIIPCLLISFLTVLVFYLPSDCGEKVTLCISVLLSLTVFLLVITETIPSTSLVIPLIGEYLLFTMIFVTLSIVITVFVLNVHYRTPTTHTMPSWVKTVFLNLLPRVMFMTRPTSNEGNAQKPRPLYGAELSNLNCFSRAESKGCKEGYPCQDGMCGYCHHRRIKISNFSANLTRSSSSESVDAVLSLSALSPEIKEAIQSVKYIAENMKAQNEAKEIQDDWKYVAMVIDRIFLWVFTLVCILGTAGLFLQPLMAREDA
T2 sequence (P30926 22-498): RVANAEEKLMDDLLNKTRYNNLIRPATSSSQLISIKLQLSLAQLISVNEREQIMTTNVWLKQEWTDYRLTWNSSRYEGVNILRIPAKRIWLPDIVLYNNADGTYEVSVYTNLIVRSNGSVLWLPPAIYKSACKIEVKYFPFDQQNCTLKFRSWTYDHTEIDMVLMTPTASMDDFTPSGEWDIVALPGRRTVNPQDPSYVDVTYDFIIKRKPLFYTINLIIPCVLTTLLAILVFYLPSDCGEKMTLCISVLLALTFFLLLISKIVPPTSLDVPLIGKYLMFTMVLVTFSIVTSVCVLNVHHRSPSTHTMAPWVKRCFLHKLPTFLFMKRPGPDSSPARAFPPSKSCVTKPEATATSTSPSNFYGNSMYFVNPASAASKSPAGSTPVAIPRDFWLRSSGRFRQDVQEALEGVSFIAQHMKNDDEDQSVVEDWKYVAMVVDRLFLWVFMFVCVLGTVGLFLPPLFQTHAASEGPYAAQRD
T1 sequence (P09483 31-630): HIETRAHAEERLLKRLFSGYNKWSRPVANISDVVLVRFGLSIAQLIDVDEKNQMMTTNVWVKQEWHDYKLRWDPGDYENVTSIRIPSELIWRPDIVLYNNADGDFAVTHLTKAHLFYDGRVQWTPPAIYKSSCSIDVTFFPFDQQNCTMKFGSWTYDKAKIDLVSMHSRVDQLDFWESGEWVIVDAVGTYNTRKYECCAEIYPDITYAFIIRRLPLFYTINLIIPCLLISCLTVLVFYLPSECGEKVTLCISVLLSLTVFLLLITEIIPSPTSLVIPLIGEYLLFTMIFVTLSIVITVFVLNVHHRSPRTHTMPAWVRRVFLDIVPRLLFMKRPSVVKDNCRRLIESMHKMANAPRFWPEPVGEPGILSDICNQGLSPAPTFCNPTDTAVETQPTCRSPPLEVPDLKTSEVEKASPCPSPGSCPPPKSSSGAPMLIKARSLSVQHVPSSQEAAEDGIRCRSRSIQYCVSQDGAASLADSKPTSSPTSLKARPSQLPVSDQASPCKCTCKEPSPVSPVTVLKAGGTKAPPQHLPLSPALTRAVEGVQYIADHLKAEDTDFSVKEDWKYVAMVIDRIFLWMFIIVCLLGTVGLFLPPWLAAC
T1 sequence (P12390 25-500): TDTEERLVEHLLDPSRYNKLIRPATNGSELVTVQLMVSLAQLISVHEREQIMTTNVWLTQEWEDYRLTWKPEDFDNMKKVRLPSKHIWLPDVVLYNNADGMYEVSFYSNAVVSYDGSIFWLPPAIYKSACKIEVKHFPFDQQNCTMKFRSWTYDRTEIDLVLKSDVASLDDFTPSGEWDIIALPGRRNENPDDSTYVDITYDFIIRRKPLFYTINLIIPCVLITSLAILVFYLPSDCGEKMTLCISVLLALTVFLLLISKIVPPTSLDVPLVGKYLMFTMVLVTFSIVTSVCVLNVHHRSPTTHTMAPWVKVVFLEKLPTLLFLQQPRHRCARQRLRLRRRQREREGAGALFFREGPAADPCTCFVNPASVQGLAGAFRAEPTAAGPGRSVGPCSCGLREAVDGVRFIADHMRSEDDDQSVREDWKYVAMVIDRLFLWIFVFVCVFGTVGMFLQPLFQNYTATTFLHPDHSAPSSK

Turning to `c1cnc2cc3c(cc2n1)CCNCC3` [Compound A, 7,8,9,10-tetrahydro-6H-azepino[4,5-g]quinoxaline], in assay [1], the Ki amounted to 17 nM. In addition, in assay [2] (86Rb+ efflux), the EC50 came out at 4.4 µM. In assay [2] (percentage of maximal activation induced by L-nicotine), this compound gave an Emax of 21%.
